According to patent US20130338129A1, “METHOD OF TREATING REFRACTORY CANCER” (Niiki Pharma Inc., priority 2010, published 2013):
Like-named read-outs stand apart in the source and are kept apart here. Blank lines part the entries; values can stand above or below the compound they belong to.

What was measured:
[1] = tested on: human lung carcinoma cell line H1975; settings: T790M mutation in the EGFR gene; Bao et al. 2009; cited from earlier work
A549 cells = settings: Denlinger et al. 2004; cited from earlier work
[2] = tested on: Human lung carcinoma cell line A549; test: MTT Cell Proliferation Assay, A549 cells; assay type: cell-based; settings: for IC50: A549 cells, MTT, 72 hours post-treatment; for IC50 Ratio (A549/H1975): ratio of IC50 in A549 to IC50 in H1975
Description: (§1) Human lung carcinoma cell line A549 plates were seeded with 2,500 cells/well, and the cells were grown in Ham's F12 medium containing 10% FBS and 1% penicillin/strep/glutamine. Cultures were maintained in a 37° C. humidified 5% CO2/95% air atmosphere. Stock cultures were allowed to grow to 70-80% confluence for this study. […] 1000 μl of medium was removed from each well at 72 hours post-treatment and 10 μl MTT reagent was added to each well. The plates were incubated at 37° C. for 4 hours and then 100 μl of detergent was added. The plates were left overnight at room temperature in the dark and was read on a plate reader using SoftMax® Pro (version 5.2, Molecular Devices).
The absorbance data was analyzed as follows: Absorbance values were converted to Percent of Control and plotted against test agent concentrations for IC50 calculations using SoftMax® Pro (version 5.2, Molecular Devices). The plate blank signal average was subtracted from all wells prior to calculating the Percent of Control. Percent of Control values were calculated by dividing the absorbance values for each test well by the No Drug Control average (column 11 values; cells+vehicle control) and multiplying by 100. Plots of Compound Concentration versus Percent of Control were analyzed using the 4-parameter equation to obtain IC50 values and other parameters that describe the sigmoidal dose response curve.
The IC50 values for the test agents were estimated by curve-fitting the data using the following four parameter-logistic equation:
wherein “Top” is the maximal % of control absorbance (100%), “Bottom” is the minimal % of control absorbance at the highest agent concentration (down to zero), Y is the Percent of Control absorbance, X is the test agent Concentration, IC50 is the concentration of agent that inhibits cell growth by 50% compared to the control cells, n is the slope of the curve.

[3] = tested on: human lung carcinoma cell line H1975; test: MTT Cell Proliferation Assay, H1975 cells; assay type: cell-based
Description: (“Test Drug”) was 41 μM (FIG. 1).
Table 2 below summarizes the activities on the two compounds in the different lung cancer cell lines tested.

[4] = tested on: Human malignant melanoma cell line G361; test: MTT Cell Proliferation Assay, G361 cells; settings: read-out: IC50 (concentration of agent that inhibits cell growth by 50%)
Description: as §1
The absorbance data was analyzed as follows: Absorbance values were converted to Percent of Control and plotted against test agent concentrations for IC50 calculations using SoftMax® Pro (version 5.2, Molecular Devices). The plate blank signal average was subtracted from all wells prior to calculating the Percent of Control. Percent of Control values were calculated by dividing the absorbance values for each test well by the No Drug Control average (column 11 values; cells+vehicle control) and multiplying by 100. Plots of Compound Concentration versus Percent of Control were analyzed using the 4-parameter equation to obtain IC50 values and other parameters that describe the sigmoidal dose response curve. […]

[5] = tested on: colorectal adenocarcinoma; test: Human clinical trial (UK), refractory colorectal cancer patient; assay type: in vivo; settings: person, colorectal adenocarcinoma failed oxaliplatin, capecitibine, cetuximab, irinotecan, panitumumab; 500 mg/m^2 i.v. daily days 1-4 of 21-day cycle, 4 cycles
From the text: The trial enrolled a person with colorectal adenocarcinoma, adenocystic histology, incompletely resected in September 2007. Their initial therapy consisted of oxaliplatin, capecitibine and cetuximab between October 2007 and February 2009 with best response of progressive disease. […] They then were changed to irinotecan and panitumumab, administered between April 2009 and October 2009, again with best response progressive disease.

[6] = tested on: Non-Small Cell Lung Cancer; test: Human clinical trial (US), refractory lung cancer patients; assay type: in vivo; settings: 320 mg/m^2 i.v. day 1, 8, 15 of 28-day cycle, 4 cycles
Description: Patient No. 04-005 was a person with Stage IV Non-Small Cell Lung Cancer, moderately differentiated adenocarcinoma histology, diagnosed in April 2006. […] Combination chemotherapy with docetaxel, carboplatin and bevacizumab was administered between September and December 2006, with which the patient achieved a complete response. The patient suffered a disease recurrence and was started on sorafenib in April 2008. Sorafenib was discontinued in May 2008 due to disease progression. […] Between November 2009 and January 2010, the patient received gemcitibine.
Patient No. 04-011 was a person with Stage IIIB Non-Small Cell Lung Cancer, poorly differentiated adenocarcinoma histology, diagnosed in January 2005. Initial therapy consisted of carboplatin, gemcitibine and zoledronic acid from January 2005 through August 2005, with a partial response. […] In December 2005, chest radiotherapy with 54 Gy, with paclitaxel radiosensitization, was initiated and completed by February 2006. Through the remainder of 2006, the patient received a course of single agent erlotinib and a course of single agent pemetrexed; best response to these therapies is unknown. In January 2007, combination therapy with gemcitibine and navelbine was initiated, but their best response was disease progression. Experimental therapy with PTK787 (vatalanib) and imatinib was initiated in February 2007. […]

SMILES: COc1cc2ncnc(Nc3ccc(F)c(Cl)c3)c2cc1OCCCN1CCOCC1 [gefitinib]
sensitivity of H1975 cells [1]: resistant

SMILES: Nc1ccn([C@@H]2O[C@H](CO)[C@@H](O)C2(F)F)c(=O)n1 [gemcitabine]
sensitivity of A549 cells (A549 cells): inherently resistant

IC50 ([2]; Homo sapiens): 9.92 µM | IC50 Ratio (A549/H1975) [2]: 1984 | IC50 ([3]; Homo sapiens, NCI-H1975, 72 hours post-treatment): 0.005 µM
SMILES: CC(=O)O[C@H]1C(=O)[C@@]2(C)[C@H]([C@H](OC(=O)c3ccccc3)[C@]3(O)C[C@H](OC(=O)[C@H](O)[C@@H](NC(=O)c4ccccc4)c4ccccc4)C(C)=C1C3(C)C)[C@]1(OC(C)=O)CO[C@@H]1C[C@@H]2O [Paclitaxel, paclitaxel]

SMILES: [Cl][Ru-]([Cl])([Cl])[Cl].[Na+].c1ccc2[nH]ncc2c1.c1ccc2[nH]ncc2c1
IC50 ([4]; G361 melanoma cells, MTT, 72 hours post-treatment): 41 µM | best response [5]: stable disease | best response ([6]; Patient No. 04-005, Stage IV NSCLC): stable disease | best response ([6]; Patient No. 04-011, Stage IIIB NSCLC): stable disease | IC50 [2]: 9.9 µM | IC50 Ratio (A549/H1975) [2]: 0.29 | IC50 ([3]; 72 hours post-treatment): 33.6 µM

IC50 ([4]; Homo sapiens, G-361, 72 h): 199 µM
SMILES: Cn1nnc2c(C(N)=O)ncn2c1=O [temozolomide]

SMILES: C#Cc1cccc(Nc2ncnc3cc(OCCOC)c(OCCOC)cc23)c1 [erlotinib]
sensitivity of H1975 cells [1]: resistant
